Key:
Conditions in all cases: incubation time: 72 h
[1] = tested on: HCC1937; test: normalised response (% of control), CellTox Green; higher = less cell death (100 = DMSO, 0 = benzethonium chloride kill control)
Method in brief: (§1)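 Breast cancer cell lines in 20 µl suspension were added to 384-well plates containing compound at 5 concentrations, spaced in 10-fold steps across a 10,000-fold range chosen for each compound, and incubated for 72 h. CellTox Green fluorescence was read at 485/520 nm, followed by CellTiter-Glo luminescence after 10 min at room temperature. Signals on each plate were normalised so that 0.1 % DMSO equals 100 and a positive kill control equals 0. Every value in the table is the normalised signal at one concentration of the series.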

[2] = tested on: DU-4475; test: as above
Method in brief: as §1

[3] = tested on: CAL-120; test: as above
Method in brief: as §1

[4] = tested on: MDA-MB-453; test: as above
Method in brief: as §1

[5] = tested on: Hs578T; test: as above
Method in brief: as §1

[6] = tested on: CAL-148; test: as above
Method in brief: as §1

[7] = tested on: MCF-10A; test: as above
Method in brief: as §1

[8] = tested on: HDQ-P1; test: as above
Method in brief: as §1

[9] = tested on: BT-474; test: as above
Method in brief: as §1

[10] = tested on: CAL-85-1; test: as above
Method in brief: as §1

[11] = tested on: MDA-MB-436; test: as above
Method in brief: as §1

[12] = tested on: MDA-MB-468; test: as above
Method in brief: as §1

[13] = tested on: HCC1143; test: as above
Method in brief: as §1

[14] = tested on: MDA-MB-231; test: as above
Method in brief: as §1

[15] = tested on: CAL-51; test: as above
Method in brief: as §1

[16] = tested on: HCC1599; test: as above
Method in brief: as §1

[17] = tested on: MFM-223; test: as above
Method in brief: as §1

[18] = tested on: BT-549; test: as above
Method in brief: as §1

[19] = tested on: HCC1937; test: normalised response (% of control), CellTiter-Glo; higher = more viable cells (100 = DMSO, 0 = benzethonium chloride kill control)
Method in brief: as §1

[20] = tested on: DU-4475; test: as above
Method in brief: as §1

[21] = tested on: CAL-120; test: as above
Method in brief: as §1

[22] = tested on: MDA-MB-453; test: as above
Method in brief: as §1

[23] = tested on: Hs578T; test: as above
Method in brief: as §1

[24] = tested on: CAL-148; test: as above
Method in brief: as §1

[25] = tested on: MCF-10A; test: as above
Method in brief: as §1

[26] = tested on: HDQ-P1; test: as above
Method in brief: as §1

[27] = tested on: BT-474; test: as above
Method in brief: as §1

[28] = tested on: CAL-85-1; test: as above
Method in brief: as §1

[29] = tested on: MDA-MB-436; test: as above
Method in brief: as §1

[30] = tested on: MDA-MB-468; test: as above
Method in brief: as §1

[31] = tested on: HCC1143; test: as above
Method in brief: as §1

[32] = tested on: SK-BR-3; test: as above
Method in brief: as §1

[33] = tested on: MDA-MB-231; test: as above
Method in brief: as §1

[34] = tested on: CAL-51; test: as above
Method in brief: as §1

[35] = tested on: HCC1599; test: as above
Method in brief: as §1

[36] = tested on: MFM-223; test: as above
Method in brief: as §1

[37] = tested on: BT-549; test: as above
Method in brief: as §1

SMILES	normalised response [1] [%]	normalised response [2] [%]	normalised response [3] [%]	normalised response [4] [%]	normalised response [5] [%]	normalised response [6] [%]	normalised response [7] [%]	normalised response [8] [%]	normalised response [9] [%]	normalised response [10] [%]	normalised response [11] [%]	normalised response [12] [%]	normalised response [13] [%]	normalised response [14] [%]	normalised response [15] [%]	normalised response [16] [%]	normalised response [17] [%]	normalised response [18] [%]	normalised response [19] [%]	normalised response [20] [%]	normalised response [21] [%]	normalised response [22] [%]	normalised response [23] [%]	normalised response [24] [%]	normalised response [25] [%]	normalised response [26] [%]	normalised response [27] [%]	normalised response [28] [%]	normalised response [29] [%]	normalised response [30] [%]	normalised response [31] [%]	normalised response [32] [%]	normalised response [33] [%]	normalised response [34] [%]	normalised response [35] [%]	normalised response [36] [%]	normalised response [37] [%]
O=C(CCCCCCC(=O)Nc1ccc([C@H]2O[C@@H](CSc3nc(-c4ccccc4)c(-c4ccccc4)o3)C[C@@H](c3ccc(CO)cc3)O2)cc1)NO [Tubacin] (1000 nM)	55.1	101	100	103	93.4	99.9	113	72.7	95.5	102	90.3	-536	105	88.2	93.4	97.9	86.1	114	82.6	91.9	88.6	70.3	95.3	95.4	105	88.2	91.3	72.2	94.8	61.7	90.2	95.3	81.4	77.8	93.2	78.3	89.3
CS(=O)(=O)c1ccc(C2=C(c3ccccc3)C(=O)OC2)cc1 [Rofecoxib] (1000 nM)	96	112	101	108	108	105	118	82	102	112	99.2	127	116	112	99.8	100	103	98.2	97	98.8	103	97	112	102	122	100	101	103	105	103	103	116	107	104	118	104	95.4
CC(C)Cn1cnc2c(N)nc3ccccc3c21 [Imiquimod] (250 nM)	112	101	99.5	103	54.6	76.8	109	104	88.2	89.3	107	119	99.4	102	94.4	97.7	92.9	98.3	93	103	95	107	98.7	98	104	97.7	110	97.5	101	97	101	105	105	99	104	101	105

Source: the supplement of paper PMC4862054
